Laboratory results reported in US20050118116A1, “Dental bleaching product” (UNIVERSITAT DE LES ILLES BALEARS, LABORATORIOS KIN, S.A., priority 1999, published 2005).

Assays:
[1] = tooth brightness factor before/after treatment (non-limiting example in the description); settings: 1.5% carbamide peroxide, pH 6.5 phosphates; peroxidase 20 units pyrogallol/ml where present; 64% before treatment
[2] = speed with which a tetracycline solution is rendered colourless (spectrophotometer, 37° C.); format: biochemical; settings: no peroxidase; high carbamide peroxide concentrations; FIG. 2
Description: The mouth wash consists of a 2.4% carbamide peroxide solution in 0.1 M phosphate buffer, pH 6.5 and on the other hand, a peroxidase solution (120 units of pyrogallol/ml) in 0.1 M phosphate buffer, pH 6.5 which is fed into the container in which the de-staining reaction is to take place, immediately after the mouth wash.
The substance to be rendered colourless is tetracycline, which is solublised in water at a concentration of 0.015M. The maximum tetracycline absorption wavelength has been selected so as to monitor the de-staining speed. The de-staining speed is determined using a spectrophotometer which allows the absorption to be monitored continually, the reaction tray being thermostated at 37° C. The de-staining reaction speeds have been calculated from the relations between absorbency variation and the reaction time, and they have been expressed in nKat.
The necessary quantities of tetracycline solution, the mouth wash and enzyme (in this order) are placed in the reaction tray to obtain the parameter combinations according to which it is intended to evaluate the enzyme bleaching capacity.

In the case of `NC(N)=O.OO` [carbamide peroxide], the “brightness factor of a tooth after treatment” value [1] was 64% and the “carbamide peroxide concentration from which de-staining speed saturates” value [2] was “approximately 0.70 M”.
